Source: patent US10323044B2, “Crystal of imidazo-oxazine, pharmaceutical composition containing said crystal, and method for producing said crystal” (TAIHO PHARMACEUTICAL CO., LTD., priority 2015, dated 2019)

Experiment: Solid stability test (storage stability; powder X-ray diffraction and HPLC analog amount)
Assay type: physicochemical
Conditions: 40° C. (hermetically sealed), six months, brown glass bottle
Protocol: Powder X-ray diffraction was performed by lightly pulverizing an appropriate amount of a test substance using an agate mortar as necessary, and measuring the test substance in accordance with the following test conditions.
The storage stability of crystal I of the imidazooxazine compound obtained in accordance with Example 1 was tested after six months of storage at 40° C.
Storage condition: 40° C. (hermetically sealed)
Measurement point: Six months
Container: Brown glass bottle
The powder X-ray diffraction of the sample after storage was measured using the method described above. Alternations in analog amount were analyzed by HPLC according to the following manner.
Method for preparing a sample solution: the sample was dissolved in 50% acetonitrile so that the concentration of the sample became 0.5 mg/mL.
Column: Acentis express C18, 4.6×150 mm, 2.7 μm,
Column temperature: 40° C.
Column flow rate: 1.5 mL/min
Mobile phase: A; 0.1% phosphate, B; acetonitrile

changes in powder X-ray diffraction pattern after storage: not observed
amount of analogs (HPLC) after storage (HPLC UV 210 nm): not increased
SMILES: C[C@]1(O)C[C@@](N)(c2ccc(-c3nc4n(c3-c3ccccc3)COc3ccncc3-4)cc2)C1 [crystal I, trans-3-amino-1-methyl-3-(4-(3-phenyl-5H-imidazo[1,2-c]pyrido[3,4-e][1,3]oxazin-2-yl)phenyl)cyclobutanol]
